# Assay results: paper PMC11967820, “Deep Learning Combined with Quantitative Structure‒Activity Relationship Accelerates De Novo Design of Antifungal Peptides” (Advanced Science, 2025)
# Read-outs that look alike come from different tables or passages of the source. No end group written: not given here.
# Tests used:
# [1] = system: fluconazole‐resistant C. albicans; details: 1 × 10^6 CFU mL^−1, 28 °C, 12 h, then plated on SD agar 37 °C, 16 h
# Experimental: Fluconazole‐resistant C. albicans was prepared following the established methods.^[ [23], [51], [52] ^]
# [2] = system: C. albicans; assay: Resistance induction by continuous passaging culture; assay type: cell-based, Candida albicans; details: for change of MIC on continuous passaging: SD broth, 24 h per generation, 28 °C
# Experimental: The resistance tendency of c_AFPs developed in C. albicans was assessed utilizing a continuous passaging culture.^[ [23], [51] ^] […] Subsequently, 20 µL of culture was transferred to a fresh SD broth with the same concentration of c_AFPs/antibiotic. The concentrations of c_AFPs/antibiotic in the SD broth were doubled every 10 generations, and the MICs of the c_AFPs/antibiotic were detected every 5 generations. Each 24‐hour incubation was considered one generation. PBS (pH 6.0) was used as a blank control, and fluconazole was used as an antibiotic control. Each experiment was performed three times.
# [3] = system: C. albicans; details: 0.12 mg kg^−1 intraperitoneally
# Experimental: The systemic C. albicans infection mouse model was established following the reported reference.^[ [22] ^] Cyclophosphamide (150 mg kg^−1 d^−1) was first injected intraperitoneally for 3 days to disrupt the immunity of female Kunming mice (Experimental Animal Center of Zhengzhou University, SCXK Yu 2021–0009). […] The injections were given once every 24 h during the first week and once every 48 h during the second week. Survival rates and body weights of the mice in each group were recorded during treatment. At 0, 7, and 14 d of treatment, duplicate samples (n = 3) of the spleen and thymus were collected from each group to determine the immune organ index.^[ [54] ^] The ratio of organ weight to body weight was adopted to describe the immune organ index. At 14 d of treatment, liver, lung, kidney, and spleen tissues were collected from each group of mice and immersed in 4% paraformaldehyde fixative. Subsequently, the tissue samples were embedded in paraffin, followed by sectioned and stained with hematoxylin‐eosin (H&E). Finally, optical microscopy was used to observe the pathological changes in the organ tissues of the mice.
# [4] = system: human red blood cells (HRBCs); details: for MHC5, minimal hemolytic concentration that results in 5% human erythrocyte hemolysis: 2% fresh human red blood cells in saline, 37 °C, 30 min, absorbance 540 nm, mean ± SD, n = 3; for TI, therapeutic index against C. albicans: TI = MHC5/MIC100 (C. albicans)
# Experimental: A 2% fresh human red blood cells (HRBCs) suspension was used in the hemolysis assay of c_AFPs.^[ [48], [50] ^] The c_AFPs solution was prepared in saline with a concentration range of 0–0.5 mg mL^−1. Then, 2% HRBCs suspension was incubated with different concentrations of c_AFPs in a 96‐well plate (37 °C, 30 min). […] Saline was used as a negative control, and Triton X‐100 (1%) was used as a positive control. Each experiment was replicated three times.
# [5] = Day 7, fluconazole group, n = 3
compound,measurement,setting,value
OC(Cn1cncn1)(Cn1cncn1)c1ccc(F)cc1F [fluconazole],minimum fungicidal concentration (MFC) against fluconazole‐resistant C. albicans,[1],> 50 × MIC
same,change of MIC on continuous passaging,[2]; 25th generation,increased twofold
same,change of MIC on continuous passaging,[2]; 40th generation,eightfold
same,MIC,"[2]; Candida albicans, read-out: MIC of fluconazole against C. albicans",1.9 µg/mL
same,change of MIC on continuous passaging,"[2]; first 20 generations, 0.5 × MIC doubled every 10 generations",remained unchanged
same,splenic index,[3]; [5],9.89 mg/g
same,thymic index,[3]; [5],2.45 mg/g
same,thymic index,"[3]; Day 14, fluconazole group, n = 3",5.16 mg/g
same,average increased weight after 14 days of treatment,"[3]; fluconazole group, n = 10",8.16 g
RLWRIVLIRKAR-NH2 [AFP‐11],minimum fungicidal concentration (MFC) against fluconazole‐resistant C. albicans,[1],8 × MIC
same,"MHC5, minimal hemolytic concentration that results in 5% human erythrocyte hemolysis",[4],46.51 ± 2.24 µg/mL
same,"TI, therapeutic index against C. albicans",[4],6.22
RLWRIVLIRRAK-NH2 [AFP‐10],minimum fungicidal concentration (MFC) against fluconazole‐resistant C. albicans,[1],2 × MIC
same,"MHC5, minimal hemolytic concentration that results in 5% human erythrocyte hemolysis",[4],48.11 ± 1.54 µg/mL
same,"TI, therapeutic index against C. albicans",[4],13.71
RLWRIVVIRRAR-NH2 [AFP‐8],minimum fungicidal concentration (MFC) against fluconazole‐resistant C. albicans,[1],4 × MIC
same,"MHC5, minimal hemolytic concentration that results in 5% human erythrocyte hemolysis",[4],41.81 ± 1.88 µg/mL
same,"TI, therapeutic index against C. albicans",[4],5.45
VRWRIRLIRKLA-NH2 [AFP‐13],minimum fungicidal concentration (MFC) against fluconazole‐resistant C. albicans,[1],2 × MIC
same,"MHC5, minimal hemolytic concentration that results in 5% human erythrocyte hemolysis",[4],99.50 ± 3.28 µg/mL
same,"TI, therapeutic index against C. albicans",[4],15.89
